Like-named read-outs stand apart in the source and are kept apart here.
Tests used:
[1] = rat brain (Golovko and Murphy 2006); cited from earlier work
[2] = in the long run (Kramer et al.); cited from earlier work
[3] = CSF fatty acid analysis (passage of the blood-brain barrier); format: in vivo, human; details: humans, given as LO+CLA
Method: At baseline and during the 3rd visit, aliquots of cerebrospinal fluid (CSF) were collected by lumbar puncture in all patients. Blood and CSF samples were centrifuged and stored at −80° C., until analyses.
The CSF samples were analysed for fatty acid composition, in order to verify whether CLA and erucic acid are able to pass, and to what extent, the blood-brain barrier.
Total lipids were extracted from plasma or CSF using chloroform/methanol 2:1 (v/v) (Folch J, Lees M, Sloane-Stanley GH. A simple method for the isolation and purification of total lipid from animal tissues. J. Biol. Chem. 1957; 226: 497-509). Separation of phospholipids from total lipids was performed as previously reported (Banni S, Carta G, Angioni E, Murru E, Scanu P, Melis MP, et al. Distribution of conjugated linoleic acid and metabolites in different lipid fractions in the rat liver. J Lipid Res 2001; 42: 1056-1061.). […]
Since saturated fatty acids are transparent to UV, they were measured, after methylation, by means of a gas chromatograph (Agilent, Model 6890, Palo Alto, Calif.) equipped with split ratio of 20:1 injection port, a flame ionization detector (FID), an autosampler (Agilent, Model 7673), a 100 m HP-88 fused capillary column (Agilent), and an Agilent ChemStation software system. […]

[4] = animal models, incorporated in the brain (Fa 2005); cited from earlier work

Molecule	passage through the blood-brain barrier [1]	myocardial lipidosis [2]	passage of CLA through the blood-brain barrier [3]	passage through the blood-brain barrier [4]
CCCCCCCC/C=C\CCCCCCCCCCCC(=O)O [erucic acid]	hardly passes through the blood-brain barrier	cause in the long run myocardial lipidosis		
conjugated linoleic acid [CLA]			prompt entry of CLA through the blood-brain barrier in humans	capable of passing through the blood-brain barrier

From patent US20110306664A1, “MEDICAL DIETARY COMPOSITION FOR TREATING NEURODEGENERATIVE DISEASES” (SOFEDUS S.R.L., priority 2008, published 2011)
